In assay [1] the target is T1, PGD2 receptor (DP receptor) (Homo sapiens, UniProt Q13258).
T1 construct: twice centrifuged at 105,000×g for 20 minutes at 4 degree C. to obtain platelet membrane fraction as precipitate; from tissue; host or cells: human platelet membrane fraction from blood of a healthy adult
T1 sequence (Q13258 1-359): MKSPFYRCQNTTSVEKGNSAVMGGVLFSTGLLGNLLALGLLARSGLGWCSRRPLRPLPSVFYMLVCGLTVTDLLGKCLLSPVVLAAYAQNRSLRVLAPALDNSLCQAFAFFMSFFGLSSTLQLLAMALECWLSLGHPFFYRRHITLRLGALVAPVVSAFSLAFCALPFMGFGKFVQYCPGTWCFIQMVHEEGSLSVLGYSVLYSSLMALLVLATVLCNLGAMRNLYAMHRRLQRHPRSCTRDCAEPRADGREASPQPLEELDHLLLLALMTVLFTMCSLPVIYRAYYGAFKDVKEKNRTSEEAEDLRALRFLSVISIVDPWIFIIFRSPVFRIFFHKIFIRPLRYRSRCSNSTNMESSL
Nature of the assay: PGD2 receptor (DP receptor) binding test, [3H]PGD2, human platelet membrane fraction. The settings on record: 5 nM [3H]PGD2, 4 degree C., 90 minutes, read-out: Inhibition constant Ki. The protocol: The test was conducted in accordance with the method of TsurI et al. (J. Med. Chem., 40, 3504-3507 (1997)).
(1) Preparation of Human Platelet Membrane Fraction
A sample of blood drawn from a healthy adult using a plastic syringe was placed in a plastic test tube containing 3.8% sodium citrate, and after gently mixing by overturning centrifuged at room temperature at 180×g for 20 minutes to obtain platelet-rich plasma (PRP) as supernatant. The PRP was further centrifuged at room temperature at 800×g for 20 minutes to obtain platelet as precipitate. […]
The human platelet membrane fraction (0.1 mg), 5 nM [3H]PGD2, and each compound was added to 200 μl of binding reaction solution (50 mM Tris/HCl (pH 7.4), 1 mM EDTA, 10 mM MgCl2), and reaction was conducted at 4 degree C. for 90 minutes. After reaction, the mixture was filtered under vacuum using a glass fiber filter paper, and after rinsing several times with cold physiological sodium chloride solution, residual radio activity on the filter paper was measured. The quantity of nonspecific binding in the present experiment was calculated as the quantity of radioactivity when a similar experiment was conducted in the presence of 10 μM PGD2, and the quantity of specific binding was given as the value of quantity of total binding minus quantity of nonspecific binding. […]

The next assay deals with T2, PGD2 receptor (Bos taurus, UniProt A5D7K8).
T2 construct: EBTr[NBL-4] cells derived from embryonic bovine trachea; endogenous in cells; host or cells: EBTr[NBL-4] cells (embryonic bovine trachea)
T2 sequence (A5D7K8 1-361): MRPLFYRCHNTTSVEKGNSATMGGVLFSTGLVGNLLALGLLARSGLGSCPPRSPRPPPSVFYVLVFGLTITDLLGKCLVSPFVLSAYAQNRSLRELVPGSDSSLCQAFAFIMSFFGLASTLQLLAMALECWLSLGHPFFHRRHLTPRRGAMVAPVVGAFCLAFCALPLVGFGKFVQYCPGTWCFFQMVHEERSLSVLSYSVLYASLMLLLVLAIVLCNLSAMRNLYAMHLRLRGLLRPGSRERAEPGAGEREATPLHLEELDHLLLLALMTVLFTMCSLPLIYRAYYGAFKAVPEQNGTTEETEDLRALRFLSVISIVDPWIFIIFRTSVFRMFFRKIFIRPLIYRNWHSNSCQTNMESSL
Nature of the assay: Competitive inhibition activity test to PGD2 receptor, cAMP production in EBTr[NBL-4] cells. In kind it is cell-based, bovine. The settings on record: 37 degree C., 15 minutes. The procedure:
EBTr[NBL-4] cells derived from embryonic bovine trachea were seeded on a micro-plate with 96 wells, at 8000 cells/well, and used for the experiment after culturing for 2 days in the presence of MEM culture medium (containing 10% calf cerum). The experiment was conducted in a MEM culture medium containing 500 μM IBMX and 10% calf serum. 100 μl of culture medium containing PGD2 and the test compound was added to initiate the reaction, and after reaction at 37 degree C. for 15 minutes, the culture medium was removed and ice-chilled PBS was added to terminate the reaction. Further, after removal of PBS, 200 μl of cytolytic agent (Lysis reagent 1) in cAMP enzymeImmunoassay system (Amersham) was added and cytolysis was brought about by shaking at room temperature for 10 minutes. The quantity of cAMP in the cytolytic agent was determined in accordance with the method described in the cAMP enzymeImmunoassay system. The inhibition activity of the test compound was calculated with the pA2 value as an indicator using the IC50 value when cAMP production quantity in the presence of 100 nM, 1 μM PGD2 was taken as 100%.
Background: Changes in cAMP serve as a functional read-out for many G protein-coupled receptors.

The mark [2] stands for this setting: Competitive inhibition activity IC50, PGD2 (100 nM), PGD2 (100 nM) as printed, read-out: Competitive inhibition activity IC50, PGD1 (100 nM).
Where [3] appears, read: PGD2 (1 μM), read-out: Competitive inhibition activity IC50, PGD2 (1 μM).

Each structure is given as a SMILES string. Where two headings read alike, the source gives them in different places.

One may read the Ki as a dissociation constant, usually derived from enzyme kinetics or from competition with a known ligand. By IC50 is commonly meant the concentration at which inhibition is half-maximal. Consider `O=C(O)Cc1cccc(CC[C@@H]2[C@@H](C#C[C@@H](O)C3CCCCC3)[C@H](O)C[C@H]2Cl)c1` [Compound 38, 9-Deoxy-9β-chloro-3,4,5,16,17,18,19,20-octanol-2,6-inter-m-phenylene-15-cyclohexyl-13,14-didehydro-PGF1α], for which the Ki in assay [1] stood at 0.8 nM. Also, the values for the IC50 at PGD2 receptor (setting [2]) and on PGD2 receptor (setting [3]) were 730 nM and 1160 nM, respectively.
The corresponding values for `O=C(O)Cc1ccccc1CC[C@@H]1[C@@H](C#C[C@@H](O)C2CCCCC2)[C@H](O)C[C@H]1Cl` [Compound 51, 9-Deoxy-9β-chloro-3,4,5, 16, 17, 18, 19,20-octanol-2,6-inter-o-phenylene-15-cyclohexyl-13,14-didehydro-PGF1α] are 2.3 nM, 3420 nM and 5370 nM.
